Test results taken from patent publication US20060159676A1, “Methods for modulating angiogenesis, lymphangiogenesis, and apoptosis with apelin compositions” (priority 2005, published 2006).

Key:
apelin expression = test: Apelin expression in rat cardiac myocytes under cobalt chloride (hypoxia mimic), PCR; type: cell-based
Procedure: Because HIF-1α consensus sites are present in the apelin regulatory region, experiments were conducted to determine whether apelin expression is hypoxia responsive and regulated by HIF-1α. Upregulation of apelin expression under hypoxic conditions would be consistent with a role for apelin in promotion of tumor angiogenesis. Preliminary experiments were carried out using primary rat cardiomyocyte cells in culture and treatment with cobalt chloride. This procedure is accepted as an equivalent to culturing cells under hypoxic conditions because HIF-1α is a metal responsive transcription protein (Ladoux and Frelin, 1994; Piret et al., 2002; Maxwell and Salnikow, 2004). Fetal rat cardiac myocytes were plated and cultured in DMEM (Invitrogen, Carlsbad, Calif.) supplemented with 10% fetal calf serum and penicillin/streptomyocin at 37° C. After four days of culture, medium was removed, and cells were treated with fresh media containing 150 μM Cobalt Chloride (Piret et al., 2002). […] After 4 hours of culture, cells were harvested, and total RNA was extracted using the Trizol procedure according to the manufacturers recommendations (Invitrogen, Carlsbad, Calif.).
Following PCR, amplification products were fractionated on an agarose gel and visualized using ethidium bromide staining under ultraviolet light (FIG. 12). […]

[1] = system: BAE/APJ#2 cells (bovine aortic endothelial cells expressing mouse APJ); test: BAE/APJ#2 endothelial cell proliferation (BrdU incorporation); type: cell-based; details: SU1498 10 ng/ml
Procedure: SU1498 was included in proliferation cultures at a concentration of 10 ng/ml and results were assayed using BrdU incorporation. After growth factor incubation, BrdU was added to each well at a final concentration of 10 μM for 2 hours, cells were washed, and fixed for BrdU immunocytochemistry.
Cells were fixed in 100% ice cold methanol at 4° C. for 2 hours to overnight. Prior to staining, cells were air dried and rehydrated for 3 minutes with PBS buffer. DNA was denatured at 37° C. with 2 M HCl, and neutralized with 2 washes for 5 minutes in 0.1 M borate buffer (pH 8.5). […] FITC-labeled anti-BrdU antibody (5 μg/ml) in block was added for 1 hour at room temperature. Cells were counterstained with propidium iodide following several washes in PBS buffer. For each experiment, 4 random fields were photographed for determination of percentage BrdU labeling.

[2] = system: mouse endothelial cells (bEnd3); test: bEnd3 endothelial cell proliferation (BrdU incorporation); type: cell-based
Procedure: Similar cellular proliferation assays were performed using mouse endothelial cells (bEnd3) that constitutively express APJ. […] SU1498 was included in proliferation cultures at a 25 μM concentration, and results were assayed using BrdU incorporation.
Proliferation inhibition experiments with the bEnd3 cells also were carried out using FGF (50 ng/ml) or the FGF pathway inhibitor SU5402 (FIG. 19). SU5402 was included in proliferation cultures at a 20 μM concentration, and results were assayed using BrdU incorporation.

BAE/APJ#2 cells = details: 10 ng/ml in bottom chamber, 16 hours
Procedure: Bovine aortic endothelial cells (BAE) were cultured in DMEM supplemented with 10% fetal bovine serum (FBS) and penicillin/streptomycin. For generation of stable cell lines expressing APJ, the mouse APJ coding region was cloned into the pcDNA 3.1 vector downstream of the CMV promoter, in frame with a myc epitope at the C-terminal end of the protein, and upstream of the neomycin gene. Bovine aortic endothelial (BAE) cells were transfected with this construction using the Superfect transfection kit (Qiagen) and selected for resistance to G418 (600 μg/ml). Colonies were isolated and screened using RT-PCR for expression of mouse APJ and also by immunocytochemistry for expression of the myc epitope.
Cell migration assays were performed using Transwell cell culture migration chambers (Becton Dickinson) with 8 micron pore size. BAE/APJ#2 cells were plated in serum free conditions in 100 μl at a concentration of 1×10^5 ml in the upper chamber of the migration chamber. Following cell attachment to the membrane, 10 ng/ml of growth factor was added to the bottom chamber, in a total volume of 0.5 ml. […] Cells attached to the membrane in the lower chamber were stained with DAPI, and 3 random fields were counted for each experimental condition.

lymphatic vessels = test: In vivo lymphatic vessel branching assay, quail CAM; details: collagen disk with 50 ng apelin or 100 ng VEGF-C on CAM of 7 day quail embryos, 18 hours
Procedure: (§1) All experiments were carried out using chorioallantoic membranes (CAMs) of quail embryos. Quail embryos used for the lymphatic experiments were 7 days old. Collagen purified from rat tails (Bernanke and Markwald, 1982) was polymerized in 2 mm disks at a final concentration of approximately 1.6 mg/ml in standard phosphate buffered saline (PBS). The total volume of the collagen disk was approximately 10 μl. For experimental treatments, the collagen disks were supplemented with either 50 ng of apelin peptide or 100 ng of VEGF-C protein prior to polymerization at 37° C. for 30 minutes. The VEGF-C was a positive control for these experiments. (Recombinant Human VEGF-C (Cys156Ser), R&D Systems, cat # 752-vc). Apelin peptide was synthesized by Sigma-Genosys (>90% purity).
For lymphangiogenesis assays, the CAMs of 7 day quail embryos were exposed, in ovo, and the collagen disks were placed directly onto the surface of the CAM. […]
(§2) The samples were incubated with primary antibody (Prox1, Research Diagnostics, cat # RDI-102PA30, diluted to 2 μg/ml final concentration) for 4 hours at room temperature or overnight at 4° C. […] Both the lymphatic cell number as well as the number of lymphatic branches were determined.
Both blood vessels and lymphatic vessels were stained with the QH-1 antibody. […] The number of lymphatic vessels branching away from blood vessels (towards the collagen disk) were counted. […]

[3] = system: lymphatic endothelial cells; test: In vivo lymphatic cell number assay, quail CAM (Prox1 staining); details: collagen disk with 50 ng apelin or 100 ng VEGF-C on CAM of 7 day quail embryos, 18 hours
Procedure: as §1, with “purity). […]” for “purity).”
as §2
Assays for lymphatic cell number were carried out in areas of the CAM that were close to the location of the collagen disk as described above. Since Prox1 specifically stains lymphatic endothelial cell nuclei, the number of cells in the lymphatic branches was counted directly. […]

[Cl][Co][Cl] [Cobalt Chloride]
apelin expression (apelin expression; 150 μM Cobalt Chloride, 4 hours, fetal rat cardiac myocytes): significantly increased | apelin expression (apelin expression; Cobalt chloride 30 μg/ml, rat cardiac myocytes): induced

CC(C)c1cc(/C=C(\C#N)C(=O)NCCCc2ccccc2)cc(C(C)C)c1O [SU1498]
effect on VEGF-mediated proliferation ([1]; VEGF 10 ng/ml): partially inhibits VEGF-mediated proliferation | effect on apelin-mediated proliferation ([1]; apelin 10 ng/ml): no significant effect on apelin-mediated proliferation | effect on VEGF-mediated proliferation ([2]; SU1498 25 μM, VEGF 50 ng/ml): partially inhibits VEGF-mediated proliferation | effect on apelin-mediated proliferation ([2]; SU1498 25 μM, apelin 10 ng/ml): no significant effect on apelin-mediated proliferation

Cc1c[nH]c(/C=C2\C(=O)Nc3ccccc32)c1CCC(=O)O [SU5402]
effect on FGF-mediated proliferation ([2]; SU5402 20 μM, FGF 50 ng/ml): partially inhibited the proliferative effect of FGF | effect on apelin-stimulated cellular proliferation ([2]; SU5402 20 μM, apelin 10 ng/ml): did not have a significant effect on apelin-stimulated cellular proliferation

VEGF
endothelial cell migration (cells per field) (BAE/APJ#2 cells): increase in migration | cellular proliferation of endothelial cells ([2]; apelin 10 ng/ml or VEGF 50 ng/ml, 0.1 ng/ml to 1 μg/ml (FIG. 17)): proliferate upon the addition of VEGF or apelin

B1: VEGF-C: Recombinant Human VEGF-C (Cys156Ser), R&D Systems; positive control for lymphangiogenesis (protein, UniProt P49767 112-227, looked up, variant C156S)
Vascular endothelial growth …: AHYNTEILKSIDNEWRKTQCMPREVCIDVGKEFGVATNTFFKPPSVSVYRCGGCCNSEGLQCMNTSTSYLSKTLFEITVPLSQGPKPVTISFANHTSCRCMSKLDVYRQVHSIIRR
number of lymphatic vessels branching away from blood vessels (lymphatic vessels): positive regulator of lymphatic branching angiogenesis | lymphatic cell number (Prox1 positive nuclei) [3]: mitogenic factor for lymphatic endothelial cells
